Reference: paper PMC11946789, “Two Amino Acid Substitutions Improve the Pharmacological Profile of the Snake Venom Peptide Mambalgin” (Toxins, 2025)
Read-outs that look alike come from different tables or passages of the source. Where no end group is shown, it is not given here.

Assays:
rASIC1b = settings: literature, cited from earlier work
rASIC1a/3 = settings: reported in literature; cited from earlier work
[1] = target: rat ASIC1a channel, homomeric (rat) (UniProt P55926)
[2] = target: rat ASIC1b channel, homomeric (rat) (UniProt P55926)
[3] = target: rat ASIC1a channel, homomeric (rat) (UniProt P55926); remark: listed apart in the source

Chain of rat ASIC1a channel, homomeric (rat) (P55926 whole entry): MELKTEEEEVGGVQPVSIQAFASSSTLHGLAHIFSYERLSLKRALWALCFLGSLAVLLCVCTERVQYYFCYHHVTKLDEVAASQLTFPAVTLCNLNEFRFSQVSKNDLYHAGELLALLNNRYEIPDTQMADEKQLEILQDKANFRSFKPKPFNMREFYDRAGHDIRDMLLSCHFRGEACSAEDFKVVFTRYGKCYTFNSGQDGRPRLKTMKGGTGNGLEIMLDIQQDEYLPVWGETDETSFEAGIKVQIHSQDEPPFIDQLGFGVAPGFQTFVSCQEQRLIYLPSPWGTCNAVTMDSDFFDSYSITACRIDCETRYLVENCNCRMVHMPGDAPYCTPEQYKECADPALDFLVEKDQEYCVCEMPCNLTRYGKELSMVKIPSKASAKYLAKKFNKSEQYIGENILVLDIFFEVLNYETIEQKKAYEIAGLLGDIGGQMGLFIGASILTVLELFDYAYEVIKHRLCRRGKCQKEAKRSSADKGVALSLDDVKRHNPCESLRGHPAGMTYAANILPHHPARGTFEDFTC
Chain of rat ASIC1b channel, homomeric (rat) (P55926 other isoform, or with tags, fused parts or gaps): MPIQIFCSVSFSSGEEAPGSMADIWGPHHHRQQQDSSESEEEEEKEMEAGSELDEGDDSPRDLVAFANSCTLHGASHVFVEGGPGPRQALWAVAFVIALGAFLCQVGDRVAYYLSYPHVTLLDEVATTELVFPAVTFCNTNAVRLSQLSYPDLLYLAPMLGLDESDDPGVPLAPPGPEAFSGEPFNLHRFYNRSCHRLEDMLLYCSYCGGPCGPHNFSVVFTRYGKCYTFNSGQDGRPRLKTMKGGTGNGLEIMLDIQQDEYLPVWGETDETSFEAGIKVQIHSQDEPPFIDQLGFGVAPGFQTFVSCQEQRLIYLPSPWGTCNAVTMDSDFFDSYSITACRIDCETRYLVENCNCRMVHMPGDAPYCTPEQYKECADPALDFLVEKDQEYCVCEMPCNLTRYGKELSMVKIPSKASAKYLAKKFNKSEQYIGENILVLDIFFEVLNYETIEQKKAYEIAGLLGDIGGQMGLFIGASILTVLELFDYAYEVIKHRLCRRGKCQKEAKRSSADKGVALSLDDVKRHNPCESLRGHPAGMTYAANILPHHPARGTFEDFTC

| Substance | IC50 (rASIC1b; ref 21) | IC50 (rASIC1b; ref 27) | effect on rASIC1a/3 (rASIC1a/3) | IC50 of inhibition of pH 6.7-evoked currents of homomeric rASIC1a in Xenopus oocytes (TEVC; peptide applied for 30 s at pH 7.4) [1] | IC50 of inhibition of pH 5.5-evoked currents of homomeric rASIC1b in Xenopus oocytes (TEVC; peptide applied for 30 s at pH 7.4) [2] | IC50 of inhibition of pH 5.5-evoked currents of homomeric rASIC1a in Xenopus oocytes (TEVC; peptide applied for 30 s at pH 7.4) [3] |
| --- | --- | --- | --- | --- | --- | --- |
| Mamb-1 (LKCYQHGKVVTCHRDMKFCYHNTGMPFRNLKLILQGCSSSCSETENNKCCSTDRCNK; ends and bridges not checked; cysteine pairing not given here; UniProt P0DKR6 22-78, looked up) | 192 nM | 39 nM | no effect |  |  |  |
| mambalgin (Mamb), wild-type peptide (from UniProt P0DKS3 1-57) |  |  |  | 86 nM | 119 nM | 110 nM |
